The supplement of paper PMC4862054

Experiments:
DU-4475 [1] = experiment: normalised viability (% of control), CellTiter-Blue; higher = more viable cells (about 100 = DMSO control); conditions: incubation time: 72 h
Description: (§1)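 DSRT, CellTiter-Blue viability, 72 h incubation. Signal is normalised to DMSO and benzethonium chloride controls. Value is the normalised response at dose 9.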

CAL-85-1 [2] = experiment: as above; conditions: incubation time: 72 h
Description: as §1

DU-4475 [3] = conditions: 72 h
In short: (§2)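 Two sequential readouts followed a 72 h incubation of breast cancer cell lines with compound at 5 concentrations in 10-fold steps over a compound-specific 10,000-fold range: CellTox Green fluorescence (485/520 nm) for cell death, then CellTiter-Glo luminescence, after 10 min at room temperature, for viability. Each plate was normalised to 0.1 % DMSO and a positive kill control. Dose-response curves were fitted for EC50, censored at the top concentration.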

HCC1143 [4] = conditions: 72 h
In short: as §2

MFM-223 [5] = conditions: 72 h
In short: as §2

CAL-148 [6] = conditions: 72 h
In short: as §2

HCC1599 [7] = conditions: 72 h
In short: as §2

HDQ-P1 [8] = conditions: 72 h
In short: as §2

DU-4475 [9] = conditions: 72 h; remark: listed apart in the source
In short: (§3)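 Compound dissolved in 5 µl medium was placed in 384-well plates before 20 µl of breast cancer cell suspension was added, and the plates were incubated for 72 h. Cells then received 2.5 µl CellTiter-Blue for 2 h at 37 °C, and fluorescence was read at 560/590 nm. EC50 values come from percent-inhibition dose-response fits that were censored at the highest concentration, with plates normalised to vehicle and a positive kill control and rows with a zero drug sensitivity score excluded.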

CAL-148 [10] = conditions: 72 h; remark: listed apart in the source
In short: as §3

CAL-85-1 [11] = conditions: 72 h
In short: as §3

CAL-51 [12] = conditions: 72 h
In short: as §3

HDQ-P1 [13] = conditions: 72 h; remark: listed apart in the source
In short: as §3

BT-549 [14] = conditions: 72 h
In short: as §3

HCC1937 [15] = conditions: 72 h
In short: as §3

HCC1143 [16] = conditions: 72 h; remark: listed apart in the source
In short: as §3

MFM-223 [17] = conditions: 72 h; remark: listed apart in the source
In short: as §3

Hs578T [18] = conditions: 72 h
In short: as §3

SK-BR-3 = conditions: 72 h
In short: as §3

CAL-120 [19] = conditions: 72 h
In short: as §3

MDA-MB-231 [20] = conditions: 72 h
In short: as §3

MDA-MB-468 [21] = conditions: 72 h
In short: as §3

HCC1599 [22] = conditions: 72 h; remark: listed apart in the source
In short: as §3

BT-474 [23] = conditions: 72 h
In short: as §3

MDA-MB-436 [24] = conditions: 72 h
In short: as §3

HCC1143 [25] = conditions: 72 h; remark: listed apart in the source
Description: (§4)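 Drug sensitivity and resistance testing (DSRT) of breast cancer cell lines in 384-well plates, 5 concentrations in 10-fold dilutions over a compound-specific 10,000-fold range. After 72 h, cytotoxicity was read by CellTox Green fluorescence and viability by CellTiter-Glo luminescence (multiplexed), normalised to DMSO and benzethonium chloride controls. EC50 is the inflection point of the fitted dose-response curve (bottom asymptote free, so it can be relative for partial curves) and is censored at the highest tested concentration. Rows with DSS 0 (no meaningful response) were excluded.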

MFM-223 [26] = conditions: 72 h; remark: listed apart in the source
Description: as §4

Hs578T [27] = conditions: 72 h; remark: listed apart in the source
Description: as §4

CAL-148 [28] = conditions: 72 h; remark: listed apart in the source
Description: as §4

CAL-120 [29] = conditions: 72 h; remark: listed apart in the source
Description: as §4

MDA-MB-231 [30] = conditions: 72 h; remark: listed apart in the source
Description: as §4

MDA-MB-468 [31] = conditions: 72 h; remark: listed apart in the source
Description: as §4

BT-474 [32] = conditions: 72 h; remark: listed apart in the source
Description: as §4

CAL-85-1 [33] = conditions: 72 h; remark: listed apart in the source
Description: as §4

MCF-10A = conditions: 72 h
Description: as §4

CAL-51 [34] = conditions: 72 h; remark: listed apart in the source
Description: as §4

MDA-MB-436 [35] = conditions: 72 h; remark: listed apart in the source
Description: as §4

BT-549 [36] = conditions: 72 h; remark: listed apart in the source
Description: as §4

HCC1937 [37] = conditions: 72 h; remark: listed apart in the source
Description: as §4

MDA-MB-453 = conditions: 72 h
Description: as §4

HDQ-P1 [38] = conditions: 72 h; remark: listed apart in the source
Description: as §4

EC50, CellTiter-Glo (HCC1143 [4]) [nM]	EC50, CellTiter-Blue viability (BT-549 [14]) [nM]	EC50, CellTiter-Blue viability (SK-BR-3) [nM]	EC50, CellTiter-Blue viability (MDA-MB-231 [20]) [nM]	EC50, CellTiter-Blue viability (MDA-MB-468 [21]) [nM]	EC50, CellTiter-Blue viability (BT-474 [23]) [nM]	EC50, CellTiter-Blue viability (MDA-MB-436 [24]) [nM]	SMILES	EC50, CellTiter-Glo (DU-4475 [3]) [nM]	EC50, CellTiter-Glo (CAL-148 [6]) [nM]	EC50, CellTiter-Glo (HDQ-P1 [8]) [nM]	EC50, CellTiter-Blue viability (CAL-148 [10]) [nM]	EC50, CellTiter-Blue viability (CAL-51 [12]) [nM]	EC50, CellTiter-Blue viability (HDQ-P1 [13]) [nM]	EC50, CellTiter-Blue viability (CAL-120 [19]) [nM]	EC50, CellTox Green (BT-474 [32]) [nM]	EC50, CellTox Green (CAL-85-1 [33]) [nM]	EC50, CellTox Green (CAL-51 [34]) [nM]	EC50, CellTox Green (MDA-MB-436 [35]) [nM]	normalised viability (DU-4475 [1]; 10000 nM) [%]	normalised viability (CAL-85-1 [2]; 10000 nM) [%]	further results
							CNNCc1ccc(C(=O)NC(C)C)cc1 [Procarbazine]												85	85.1	
9320	8000	2400	4700	2690	2790	505	CN(C)C[C@@H]1CCn2cc(c3ccccc32)C2=C(C(=O)NC2=O)c2cn(c3ccccc23)CCO1 [Ruboxistaurin]	3790	1750	2720	4840	4800	3540	6140	370	2320	1580	1000	1.01	84.3	EC50, CellTiter-Glo (MFM-223 [5]): 3220 nM; EC50, CellTiter-Blue viability (DU-4475 [9]): 2740 nM; EC50, CellTiter-Blue viability (HCC1937 [15]): 4090 nM; EC50, CellTiter-Blue viability (MFM-223 [17]): 1480 nM; EC50, CellTiter-Blue viability (Hs578T [18]): 8920 nM; EC50, CellTiter-Blue viability (HCC1599 [22]): 1730 nM; EC50, CellTox Green (BT-549 [36]): 7220 nM; EC50, CellTox Green (HCC1937 [37]): 7550 nM; EC50, CellTox Green (MDA-MB-453): 3790 nM; EC50, CellTox Green (CAL-148 [28]): 999 nM; EC50, CellTox Green (MDA-MB-231 [30]): 2010 nM; EC50, CellTox Green (MDA-MB-468 [31]): 2490 nM; EC50, CellTox Green (HDQ-P1 [38]): 5090 nM
1330	1510	6750	13.2	1410	1540	> 10000	CN1CCN(CCOc2cc(OC3CCOCC3)c3c(Nc4c(Cl)ccc5c4OCO5)ncnc3c2)CC1 [Saracatinib]		2550	541	447	700	615	567	8130	2940	371	1620	133	23.5	EC50, CellTiter-Glo (HCC1599 [7]): 5900 nM; EC50, CellTiter-Blue viability (CAL-85-1 [11]): 757 nM; EC50, CellTox Green (HDQ-P1 [38]): 6610 nM

SMILES	EC50, CellTiter-Glo (HCC1143 [4]) [nM]	EC50, CellTiter-Blue viability (BT-549 [14]) [nM]	EC50, CellTiter-Blue viability (SK-BR-3) [nM]	EC50, CellTiter-Blue viability (MDA-MB-231 [20]) [nM]	EC50, CellTiter-Blue viability (MDA-MB-468 [21]) [nM]	EC50, CellTiter-Blue viability (BT-474 [23]) [nM]	EC50, CellTiter-Blue viability (MDA-MB-436 [24]) [nM]	EC50, CellTiter-Glo (DU-4475 [3]) [nM]	EC50, CellTiter-Glo (CAL-148 [6]) [nM]	EC50, CellTiter-Glo (HDQ-P1 [8]) [nM]	EC50, CellTiter-Blue viability (CAL-148 [10]) [nM]	EC50, CellTiter-Blue viability (CAL-51 [12]) [nM]	EC50, CellTiter-Blue viability (HDQ-P1 [13]) [nM]	EC50, CellTiter-Blue viability (CAL-120 [19]) [nM]	EC50, CellTox Green (BT-474 [32]) [nM]	EC50, CellTox Green (CAL-85-1 [33]) [nM]	EC50, CellTox Green (CAL-51 [34]) [nM]	EC50, CellTox Green (MDA-MB-436 [35]) [nM]	normalised viability (DU-4475 [1]; 10000 nM) [%]	normalised viability (CAL-85-1 [2]; 10000 nM) [%]	further results
C/C(=C\c1csc(C)n1)[C@@H]1C[C@@H]2O[C@]2(C)CCC[C@H](C)[C@H](O)[C@@H](C)C(=O)C(C)(C)[C@@H](O)CC(=O)O1 [Patupilone]	18.9	4.38	5.58	0.95	2.77	10.9	7.26	93.8	30	66.7	3.13	11.4	16.5	8.13	35.1	53.3	2.63	8.93			normalised viability (DU-4475 [1]; 1000 nM): 2.77%; normalised viability (CAL-85-1 [2]; 1000 nM): 30.3%; EC50, CellTiter-Glo (MFM-223 [5]): 156 nM; EC50, CellTiter-Glo (HCC1599 [7]): 584 nM; EC50, CellTiter-Blue viability (DU-4475 [9]): 11.1 nM; EC50, CellTiter-Blue viability (CAL-85-1 [11]): 1.56 nM; EC50, CellTiter-Blue viability (HCC1937 [15]): 2.26 nM; EC50, CellTiter-Blue viability (HCC1143 [16]): 9.87 nM; EC50, CellTiter-Blue viability (MFM-223 [17]): 13 nM; EC50, CellTiter-Blue viability (Hs578T [18]): 6.7 nM; EC50, CellTiter-Blue viability (HCC1599 [22]): 211 nM; EC50, CellTox Green (HCC1143 [25]): 596 nM; EC50, CellTox Green (MFM-223 [26]): 609 nM; EC50, CellTox Green (Hs578T [27]): 206 nM; EC50, CellTox Green (CAL-148 [28]): 34.8 nM; EC50, CellTox Green (CAL-120 [29]): 162 nM; EC50, CellTox Green (MDA-MB-231 [30]): 136 nM; EC50, CellTox Green (MDA-MB-468 [31]): 1.67 nM; EC50, CellTox Green (MCF-10A): 145 nM
